Data on two compounds can be found in paper PMC9329436, “Optimization of the 4-anilinoquin(az)oline scaffold as epidermal growth factor receptor (EGFR) inhibitors for chordoma utilizing a toxicology profiling assay platform” (Scientific Reports, 2022).

Where two headings read alike, the source gives them in different places.

Holding throughout (assay type): biochemical
Test [1] concerns the target 320 wild-type protein kinases (Homo sapiens, UniProt Q07912). The following applies: singlicate. The source says: (§1) Table S4. Profiling of two compounds at two concentrations against 320 wild-type protein kinases; singlicate measurement; Residual activities (% of control).
The target in test [2] is 320 wild-type protein kinases (Homo sapiens, UniProt P29317). The following applies: singlicate.
From the text: as §1

Test [3] deals with T1, 320 wild-type protein kinases (Homo sapiens, UniProt Q13043).
T1 sequence (Q13043 1-487): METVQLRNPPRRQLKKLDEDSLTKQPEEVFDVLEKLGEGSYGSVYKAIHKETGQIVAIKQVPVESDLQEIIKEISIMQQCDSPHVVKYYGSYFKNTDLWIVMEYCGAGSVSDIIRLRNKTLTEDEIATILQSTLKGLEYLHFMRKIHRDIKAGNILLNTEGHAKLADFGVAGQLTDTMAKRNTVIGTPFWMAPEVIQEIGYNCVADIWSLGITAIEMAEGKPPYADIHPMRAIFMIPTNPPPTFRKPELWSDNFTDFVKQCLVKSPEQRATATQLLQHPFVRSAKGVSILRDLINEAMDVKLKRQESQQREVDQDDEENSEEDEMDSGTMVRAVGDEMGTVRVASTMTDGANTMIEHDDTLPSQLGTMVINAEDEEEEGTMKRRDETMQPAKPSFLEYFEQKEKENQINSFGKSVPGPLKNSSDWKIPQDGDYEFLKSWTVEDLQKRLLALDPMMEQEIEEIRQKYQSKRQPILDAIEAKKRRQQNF
The following applies: singlicate.
From the text: as §1

For test [4], the target named is 320 wild-type protein kinases (Homo sapiens, UniProt Q16644). The settings on record: singlicate.
From the text: as §1

Test [5] addresses T2, 320 wild-type protein kinases (Homo sapiens, UniProt Q9BXA7).
T2 sequence (Q9BXA7 1-367): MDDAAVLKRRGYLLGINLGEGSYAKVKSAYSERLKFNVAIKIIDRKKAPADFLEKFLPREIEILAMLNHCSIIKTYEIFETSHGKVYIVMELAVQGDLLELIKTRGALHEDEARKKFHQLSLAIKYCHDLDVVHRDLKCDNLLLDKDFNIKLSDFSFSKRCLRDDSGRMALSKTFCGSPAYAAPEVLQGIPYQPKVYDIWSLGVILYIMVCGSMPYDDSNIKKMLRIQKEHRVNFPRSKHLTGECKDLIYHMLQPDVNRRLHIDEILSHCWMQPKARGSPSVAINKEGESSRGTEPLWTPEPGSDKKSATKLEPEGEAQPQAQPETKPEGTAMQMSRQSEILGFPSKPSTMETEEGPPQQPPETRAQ
The settings on record: kinase TSSK1, singlicate.
From the text: as §1

Test [6] concerns the target 320 wild-type protein kinases (Homo sapiens, UniProt Q16816). The following applies: singlicate.
From the text: as §1

Test [7] concerns the target T3, 320 wild-type protein kinases (Homo sapiens, UniProt Q13470).
T3 sequence (Q13470 1-666): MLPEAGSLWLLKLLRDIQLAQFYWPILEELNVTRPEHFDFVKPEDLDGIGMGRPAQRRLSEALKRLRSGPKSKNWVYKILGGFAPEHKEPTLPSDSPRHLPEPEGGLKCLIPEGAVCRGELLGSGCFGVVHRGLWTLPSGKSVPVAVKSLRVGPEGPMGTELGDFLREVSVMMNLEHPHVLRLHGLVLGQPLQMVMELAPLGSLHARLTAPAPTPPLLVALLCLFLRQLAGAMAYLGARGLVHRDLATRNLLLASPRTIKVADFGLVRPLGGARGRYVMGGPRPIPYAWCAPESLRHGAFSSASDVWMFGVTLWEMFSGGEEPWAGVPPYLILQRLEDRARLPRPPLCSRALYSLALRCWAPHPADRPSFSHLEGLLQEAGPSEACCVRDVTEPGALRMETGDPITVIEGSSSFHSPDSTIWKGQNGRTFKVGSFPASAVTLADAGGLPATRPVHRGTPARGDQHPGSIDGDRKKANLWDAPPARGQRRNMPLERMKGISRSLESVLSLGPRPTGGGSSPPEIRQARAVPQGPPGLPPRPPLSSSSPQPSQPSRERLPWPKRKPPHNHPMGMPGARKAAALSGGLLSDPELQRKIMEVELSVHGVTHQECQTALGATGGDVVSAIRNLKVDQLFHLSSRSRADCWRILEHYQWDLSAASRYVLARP
The following applies: kinase TNK1, singlicate.
From the text: as §1

In test [8] the target is T4, 320 wild-type protein kinases (Homo sapiens, UniProt P52564, S207D/T211D).
T4 sequence (P52564 1-334 S207D/T211D): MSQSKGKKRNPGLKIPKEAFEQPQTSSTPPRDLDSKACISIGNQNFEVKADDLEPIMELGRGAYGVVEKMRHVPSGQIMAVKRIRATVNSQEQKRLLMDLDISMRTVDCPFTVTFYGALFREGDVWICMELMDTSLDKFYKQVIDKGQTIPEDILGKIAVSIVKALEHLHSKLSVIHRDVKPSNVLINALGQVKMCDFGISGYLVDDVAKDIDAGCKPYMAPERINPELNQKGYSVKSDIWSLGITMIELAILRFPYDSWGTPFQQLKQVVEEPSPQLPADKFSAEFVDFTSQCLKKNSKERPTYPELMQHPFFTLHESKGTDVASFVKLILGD
The settings on record: MKK6 S207D/T211D**, singlicate.
From the text: as §1

In test [9] the target is 320 wild-type protein kinases (Homo sapiens, UniProt P30291). The following applies: kinase WEE1, singlicate.
From the text: as §1

The target in test [10] is 320 wild-type protein kinases (Homo sapiens, UniProt Q9H3Y6). The following applies: kinase SRMS, singlicate.
From the text: as §1

Chain of 320 wild-type protein kinases (Homo sapiens, UniProt Q16816) (Q16816 whole entry): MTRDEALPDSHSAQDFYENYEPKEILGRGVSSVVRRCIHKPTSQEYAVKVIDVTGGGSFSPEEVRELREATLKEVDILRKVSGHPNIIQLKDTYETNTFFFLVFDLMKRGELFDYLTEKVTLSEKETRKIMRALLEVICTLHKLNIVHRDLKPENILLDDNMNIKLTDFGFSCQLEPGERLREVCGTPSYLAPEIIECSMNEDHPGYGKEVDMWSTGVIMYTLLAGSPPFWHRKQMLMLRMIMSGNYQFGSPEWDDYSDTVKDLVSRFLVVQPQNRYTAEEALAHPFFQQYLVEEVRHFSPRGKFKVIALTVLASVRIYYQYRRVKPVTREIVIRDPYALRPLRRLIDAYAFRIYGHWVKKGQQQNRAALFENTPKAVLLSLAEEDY
Chain of 320 wild-type protein kinases (Homo sapiens, UniProt Q07912) (Q07912 whole entry): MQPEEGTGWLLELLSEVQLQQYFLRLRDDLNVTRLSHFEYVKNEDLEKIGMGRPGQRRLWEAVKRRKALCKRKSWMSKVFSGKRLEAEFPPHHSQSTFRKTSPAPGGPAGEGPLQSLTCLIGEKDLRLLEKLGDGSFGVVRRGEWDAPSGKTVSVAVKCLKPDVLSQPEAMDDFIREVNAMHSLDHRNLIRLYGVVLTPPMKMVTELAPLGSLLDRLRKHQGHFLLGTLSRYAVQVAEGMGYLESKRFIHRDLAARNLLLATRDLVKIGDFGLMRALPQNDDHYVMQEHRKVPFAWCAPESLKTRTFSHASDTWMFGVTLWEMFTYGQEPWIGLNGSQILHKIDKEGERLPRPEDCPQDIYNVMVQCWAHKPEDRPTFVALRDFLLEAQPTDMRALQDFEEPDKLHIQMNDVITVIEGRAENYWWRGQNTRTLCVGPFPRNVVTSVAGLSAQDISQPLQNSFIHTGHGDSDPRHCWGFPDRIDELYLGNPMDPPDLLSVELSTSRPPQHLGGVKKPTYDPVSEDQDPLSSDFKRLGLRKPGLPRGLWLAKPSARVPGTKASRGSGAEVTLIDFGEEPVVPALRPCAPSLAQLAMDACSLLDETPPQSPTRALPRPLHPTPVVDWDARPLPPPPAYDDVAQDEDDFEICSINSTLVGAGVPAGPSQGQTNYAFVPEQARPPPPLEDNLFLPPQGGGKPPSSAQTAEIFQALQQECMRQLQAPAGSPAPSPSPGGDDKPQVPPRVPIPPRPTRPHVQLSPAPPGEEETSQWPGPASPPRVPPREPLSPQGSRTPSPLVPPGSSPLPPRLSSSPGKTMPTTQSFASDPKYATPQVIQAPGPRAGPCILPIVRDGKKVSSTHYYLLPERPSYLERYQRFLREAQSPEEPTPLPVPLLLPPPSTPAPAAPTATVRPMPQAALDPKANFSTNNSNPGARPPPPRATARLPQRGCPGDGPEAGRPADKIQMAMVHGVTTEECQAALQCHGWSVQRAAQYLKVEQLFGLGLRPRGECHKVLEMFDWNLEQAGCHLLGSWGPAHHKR
Chain of 320 wild-type protein kinases (Homo sapiens, UniProt Q16644) (Q16644 whole entry): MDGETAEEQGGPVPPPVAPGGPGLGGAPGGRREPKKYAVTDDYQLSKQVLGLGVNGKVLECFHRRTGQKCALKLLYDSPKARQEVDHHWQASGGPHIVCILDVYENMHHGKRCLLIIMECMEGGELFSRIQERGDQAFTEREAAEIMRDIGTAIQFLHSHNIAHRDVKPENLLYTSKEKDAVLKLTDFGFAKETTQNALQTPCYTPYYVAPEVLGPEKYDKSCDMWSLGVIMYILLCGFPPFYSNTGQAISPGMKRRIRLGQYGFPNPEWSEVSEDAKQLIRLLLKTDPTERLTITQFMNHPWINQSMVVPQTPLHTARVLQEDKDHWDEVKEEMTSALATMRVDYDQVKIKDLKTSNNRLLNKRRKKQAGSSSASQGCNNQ
Chain of 320 wild-type protein kinases (Homo sapiens, UniProt Q9H3Y6) (Q9H3Y6 whole entry): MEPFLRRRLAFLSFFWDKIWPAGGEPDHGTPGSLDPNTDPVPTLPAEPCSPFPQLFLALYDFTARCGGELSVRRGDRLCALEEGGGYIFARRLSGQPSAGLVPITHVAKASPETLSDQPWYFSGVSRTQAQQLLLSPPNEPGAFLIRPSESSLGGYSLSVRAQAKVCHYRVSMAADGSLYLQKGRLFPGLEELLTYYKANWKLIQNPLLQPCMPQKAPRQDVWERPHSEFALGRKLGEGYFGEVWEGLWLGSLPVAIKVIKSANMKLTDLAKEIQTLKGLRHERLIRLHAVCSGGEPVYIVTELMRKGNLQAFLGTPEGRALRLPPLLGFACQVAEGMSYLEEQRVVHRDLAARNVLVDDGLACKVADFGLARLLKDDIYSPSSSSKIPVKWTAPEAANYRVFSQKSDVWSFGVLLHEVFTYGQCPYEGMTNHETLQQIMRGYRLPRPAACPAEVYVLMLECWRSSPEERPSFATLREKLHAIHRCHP
Chain of 320 wild-type protein kinases (Homo sapiens, UniProt P30291) (P30291 whole entry): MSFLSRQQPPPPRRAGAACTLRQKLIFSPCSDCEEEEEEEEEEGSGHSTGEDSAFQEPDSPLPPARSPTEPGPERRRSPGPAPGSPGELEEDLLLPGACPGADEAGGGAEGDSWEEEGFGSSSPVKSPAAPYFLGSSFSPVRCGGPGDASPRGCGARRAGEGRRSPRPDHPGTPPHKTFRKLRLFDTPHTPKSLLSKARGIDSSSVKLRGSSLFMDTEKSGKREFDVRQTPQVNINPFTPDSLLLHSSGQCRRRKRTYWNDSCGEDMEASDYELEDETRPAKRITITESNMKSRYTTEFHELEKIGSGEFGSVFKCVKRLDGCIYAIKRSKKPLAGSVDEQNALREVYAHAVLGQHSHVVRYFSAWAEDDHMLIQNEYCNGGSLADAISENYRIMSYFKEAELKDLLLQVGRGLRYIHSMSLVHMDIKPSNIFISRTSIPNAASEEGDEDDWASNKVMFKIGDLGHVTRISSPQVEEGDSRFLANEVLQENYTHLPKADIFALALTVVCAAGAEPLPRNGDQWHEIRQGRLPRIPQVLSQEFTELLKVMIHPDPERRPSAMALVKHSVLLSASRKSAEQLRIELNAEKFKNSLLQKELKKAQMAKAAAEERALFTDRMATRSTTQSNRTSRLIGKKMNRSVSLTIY
Chain of 320 wild-type protein kinases (Homo sapiens, UniProt P29317) (P29317 24-976): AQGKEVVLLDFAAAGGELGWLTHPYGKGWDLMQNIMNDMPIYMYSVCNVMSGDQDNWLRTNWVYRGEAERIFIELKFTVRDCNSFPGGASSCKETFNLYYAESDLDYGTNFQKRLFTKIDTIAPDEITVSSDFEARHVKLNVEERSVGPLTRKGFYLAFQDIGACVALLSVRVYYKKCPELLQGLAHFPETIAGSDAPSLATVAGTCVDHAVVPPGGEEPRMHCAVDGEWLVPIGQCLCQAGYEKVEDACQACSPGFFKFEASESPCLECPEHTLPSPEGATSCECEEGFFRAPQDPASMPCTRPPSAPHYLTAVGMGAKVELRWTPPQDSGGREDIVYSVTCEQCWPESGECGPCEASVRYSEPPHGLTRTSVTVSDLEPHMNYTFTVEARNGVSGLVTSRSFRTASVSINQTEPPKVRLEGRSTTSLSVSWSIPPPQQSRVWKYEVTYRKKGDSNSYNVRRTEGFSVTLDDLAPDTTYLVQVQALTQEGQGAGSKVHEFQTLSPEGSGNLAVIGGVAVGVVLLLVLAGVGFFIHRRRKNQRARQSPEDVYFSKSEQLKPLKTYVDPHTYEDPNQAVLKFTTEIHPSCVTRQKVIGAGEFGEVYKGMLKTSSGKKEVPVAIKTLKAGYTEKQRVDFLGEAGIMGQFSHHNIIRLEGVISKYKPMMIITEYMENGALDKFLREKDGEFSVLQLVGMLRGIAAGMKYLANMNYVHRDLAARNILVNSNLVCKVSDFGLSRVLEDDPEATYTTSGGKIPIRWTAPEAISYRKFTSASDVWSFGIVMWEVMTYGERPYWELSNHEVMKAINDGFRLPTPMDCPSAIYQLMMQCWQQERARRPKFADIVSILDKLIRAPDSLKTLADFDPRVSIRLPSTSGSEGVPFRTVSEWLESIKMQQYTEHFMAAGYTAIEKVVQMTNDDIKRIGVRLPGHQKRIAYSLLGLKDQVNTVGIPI

Turning to `C#Cc1cc(Nc2ncnc3cc(OC)c(OC)cc23)ccc1Cl` [Compound 45], the Residual activity in test [1] (ACK1, 1.0E-06 M) is listed as 63 % of control; in test [1] (ACK1, 1.0E-07 M) it was 100 % of control; in [2] (EPHA2, 1.0E-06 M) it was 81 % of control; in [2] (EPHA2, 1.0E-07 M), 87 % of control; in test [3] (MST1, 1.0E-06 M), 83 % of control; in test [3] (MST1, 1.0E-07 M) it was 89 % of control. For the same compound, the Residual activity is 87 % of control in [4] (MAPKAPK3, 1.0E-06 M); 85 % of control in test [6] (PHKG1, 1.0E-06 M); 108 % of control in test [6] (PHKG1, 1.0E-07 M); 90 % of control in [8] (1.0E-06 M); 95 % of control in test [8] (1.0E-07 M). Also, the “Residual activity, TSSK1” value in [5] (assay conc. 1.0E-06 M) is reported as 111 % of control; in [5] (assay conc. 1.0E-07 M) it was 127 % of control. In addition, the “Residual activity, TNK1” value in [7] (assay conc. 1.0E-06 M) was 83 % of control; in [7] (assay conc. 1.0E-07 M) it was 117 % of control. The “Residual activity, WEE1” value is 76 % of control in test [9] (assay conc. 1.0E-06 M) and 109 % of control in test [9] (assay conc. 1.0E-07 M). The figures for the “Residual activity, SRMS” value in [10] (assay conc. 1.0E-06 M) and in test [10] (assay conc. 1.0E-07 M) were 103 % of control and 124 % of control, respectively.

For `C#Cc1cc(Nc2ncnc3cc(I)ccc23)ccc1Cl` [Compound 41], the Residual activity in test [1] (ACK1, 1.0E-06 M) is given as 98 % of control; in test [1] (ACK1, 1.0E-07 M), 134 % of control; in test [2] (EPHA2, 1.0E-06 M) it was 91 % of control; in test [2] (EPHA2, 1.0E-07 M) it was 90 % of control; in [3] (MST1, 1.0E-06 M), 84 % of control; in test [3] (MST1, 1.0E-07 M) it was 80 % of control. In addition, the Residual activity in [4] (MAPKAPK3, 1.0E-06 M) is listed as 86 % of control; in test [4] (MAPKAPK3, 1.0E-07 M), 99 % of control; in test [6] (PHKG1, 1.0E-06 M) it was 94 % of control; in test [6] (PHKG1, 1.0E-07 M), 97 % of control; in test [8] (1.0E-06 M), 98 % of control; in test [8] (1.0E-07 M), 90 % of control. The entries for the “Residual activity, TSSK1” value in [5] (assay conc. 1.0E-06 M) and in [5] (assay conc. 1.0E-07 M) were 105 % of control and 142 % of control, respectively. Further, the “Residual activity, TNK1” value in [7] (assay conc. 1.0E-06 M) is 112 % of control; in test [7] (assay conc. 1.0E-07 M) it was 130 % of control. Besides, the “Residual activity, WEE1” value in test [9] (assay conc. 1.0E-06 M) is 87 % of control; in test [9] (assay conc. 1.0E-07 M), 112 % of control. The “Residual activity, SRMS” value in [10] (assay conc. 1.0E-06 M) is recorded as 98 % of control; in test [10] (assay conc. 1.0E-07 M), 113 % of control.
